Laboratory results from patent US6967219B2, “Reversing or preventing premature vascular senescence” (Cornell Research Foundation, Inc., priority 2001, dated 2005).

Legend:
[1] = system: saphenous vein endothelial cells seeded on artificial vascular graft; assay: Example VI: artificial vascular graft seeded with endothelial cells cultured with hydroxy-L-arginine, implanted; assay type: in vivo, human; conditions: cells cultured with 10-100 μg/ml at 35° C. for 2-3 weeks
Procedure: A person with peripheral vascular disease is undergoing an elective femoral-to-popliteal bypass surgery utilizing an artificial vascular graft. A saphenous vein is obtained to harvest endothelial cells for expansion and seed on the surface of a graft. Expanded endothelial cells are cultured in the medium containing hydroxy-L-arginine, 10-100 μg/ml at 35° C. for 2-3 weeks, and cells are seeded on the graft in the continuous presence of the same concentration of hydroxy-L-arginine. Thus prepared, the vascular graft is implanted.

[2] = system: patient with type I (alternatively type 2) diabetes mellitus; assay: Example II: poorly controlled diabetes mellitus patient treated with hydroxy-L-arginine; assay type: in vivo, human; conditions: 1-20 mg/kg thrice/day, 6 months later
Procedure: A patient with type I (alternatively, a patient with type 2) diabetes mellitus, past medical history of myocardial infarction, peripheral vascular disease, hypertension, proteinuria and non-healing foot ulcer, is receiving insulin, but patient is poorly compliant. Patient's fasting blood glucose level is 200 mg/dl. Additional laboratory findings include elevated Hgb Alc level (8.5%) as well as one of the following levels of AGE: elevated level of pentosidine (2.3 pmol/mg) or elevated level of Amadori serum albumin (41 U/ml). (In some cases, renal biopsy will be performed, which will directly disclose the deposition of AGE in the renal parenchyma and increased proportion of SA-beta-galactosidase-stained endothelial cells).

[3] = system: patient diagnosed with Alzheimer's disease; assay: Example III: patient with Alzheimer's disease treated with hydroxy-L-arginine; assay type: in vivo, human; conditions: 1-20 mg/kg thrice/day alone or with antioxidant agents and vitamins; two years later
Procedure: A person with no known medical conditions has been experiencing a sustained loss of short-term memory for the past three years. Their CBC, electrolytes and other plasma parameters of metabolic profile are within normal range. There is no vitamin deficiency, no abnormalities in liver function tests, and no previous history of cerebro-vascular accidents. […] Based on these findings the patient is diagnosed with Alzheimer's disease. Therapy with hydroxy-L-arginine is initiated at doses 1-20 mg/kg thrice/day alone or in combination with antioxidant agents and vitamins (e.g., ascorbate, alpha-tocopherol, vitamin B6, vitamin B12, folate (folic acid), carotenoids, coenzyme Q10, phytoestrogens (including isoflavonoids), selenium, butylated hydroxytoluene (BHT), butylated hydroxyanisole (BHA) and n-3 polyunsaturated fatty acids (PUFA)).

[4] = system: saphenous vein endothelial cells seeded on artificial valve; assay: Example V: artificial heart valve seeded with endothelial cells cultured with hydroxy-L-arginine, implanted; assay type: in vivo, human; conditions: cells cultured with 10-100 μg/ml at 35° C. for 2-3 weeks
Procedure: A person with a defective heart valve is being prepared for a surgical replacement of the valve with a prosthetic device. A saphenous vein is obtained to harvest endothelial cells for expansion and seeding on the surface of a artificial valve. Expanded endothelial cells are cultured in the medium containing hydroxy-L-arginine, 10-100 μg/ml at 35° C. for 2-3 weeks and cells are seeded on the valve in the continuous presence of the same concentration of hydroxy-L-arginine. Thus prepared, the artificial valve is implanted.

[5] = system: patient with end stage renal disease; assay: Example I: patient with end stage renal disease on chronic hemodialysis treated with hydroxy-L-arginine; assay type: in vivo, human; conditions: 1-20 mg/kg thrice/day, 6 months later
Text: (In some cases, renal biopsy will be performed, which will directly disclose the deposition of AGE in the renal parenchyma and increased proportion of SA-beta-galactosidase-stained endothelial cells). […] In addition, the patient has their arterio-veinous fistula revised 3 times due to clotting and stenosis. The patient is also complaining of a non-healing foot ulcer and intermittent claudication, both signs of peripheral vascular disease.

[6] = system: Human umbilical vein endothelial cells (HUVEC); assay: SA β-galactosidase staining of HUVEC plated on glycated collagen (premature senescence); assay type: cell-based; conditions: for reduction/reversal of premature senescence across dilutions of glycated collagen: HUVEC on glycated collagen at different dilutions/concentrations of glycated matrix
Procedure: Detection of SA-β-galactosidase was carried out utilizing the histochemical staining method of Dimitri et al, Proc. Natl. Acad. Sci. USA 92, 9363-9367 as modified by Van der Loo, B., et al, Exp. Cell Res. 241, 309-315 (1998). SA-β-galactosidase is a known senescence marker. […] This phenomenon occurred in 12 week and 21 week-old diabetic rats, but was undetectable in age-matched Zucker lean rats (0/24 branches examined).
Human umbilical vein endothelial cells (HUVEC) after four passages were plated on glycated collagen with the addition of 0.1 mM hydroxy-L-arginine vis-a-vis the same concentration of L-arginine. Application was made on day 1, 2 hours after plating. The extent of SA β-galactosidase staining was evaluated on days 3 and 5 of culture on a glycated or native matrix. In addition, to study the reversibility process, HUVEC were plated on glycated collagen for three days (time sufficient to induce premature senescence), and hydroxy-L-arginine was added every 12 hours, starting on day 3, and the cells were examined on day 5.

[7] = system: patients of Examples I, II and III; assay: Example IV: other hydroxyguanidines substituted for hydroxy-L-arginine in Examples I, II and III; assay type: in vivo, human; conditions: same dosage as in Examples I

Compound	thrombotic and atheroembolic complications [1]	blood pressure [2]	coronary angiogram [2]	coronary symptoms [2]	foot ulcer [2]	pentosidine level after treatment ([2]; baseline 2.3 pmol/mg) [pmol/mg]	Amadori serum albumin level after treatment ([2]; baseline 41 U/ml) [U/ml]	symptoms related to the memory loss [3]	thrombotic and atheroembolic complications [4]	coronary symptoms [5]	foot ulcer [5]	pentosidine level after treatment ([5]; baseline 2.5 pmol/mg) [pmol/mg]	Amadori serum albumin level after treatment ([5]; baseline 40 U/ml) [U/ml]	blood pressure ([5]; baseline 175/105 mmHg)	development of premature senescence (SA β-galactosidase staining) ([6]; HUVEC grown on glycated collagen, 0.1 mM added to culture medium on day 1, 2 hours after plating, evaluated days 3 and 5)	reduction/reversal of premature senescence across dilutions of glycated collagen [6]	results when substituted for hydroxy-L-arginine at the same dosage [7]
N=C(NO)NCCC[C@H](N)C(=O)O [hydroxy-L-arginine, N^ω-hydroxy-L-arginine]	less thrombotic and atheroembolic complications	normalization of blood pressure	either no further worsening of stenotic lesions or some degree of improvement	significant subjective improvement	healing of foot ulcer	1.7	30	no deterioration and a partial improvement	less thrombotic and atheroembolic complications	significant subjective improvement	healing of foot ulcer	1.7	30	normalization of blood pressure	completely abolished the development of premature senescence	able to reduce premature senescence at all dilutions of glycated collagen	
N=C(N)NCCC[C@H](N)C(=O)O [L-arginine, reference compound]																failed to reverse premature senescence at higher concentrations of glycated matrix	
N=C(N)NO [hydroxyguanidine, Hydroxyguanidine]																	Positive results similar to those obtained in Examples I, II and III
